Measured values: US20220184220A1, “XYLOGLUCAN-CONTAINING PRODRUGS AND METHODS OF MANUFACTURE AND USE THEREOF” (priority 2019, published 2022)
Entries after “also recorded” stand apart in the source; their conditions may differ.

Tests used:
[1] = biological target: Bacteroides ovatus GH5 endo-xyloglucanase (Bacteroides ovatus, UniProt A7LXT7); experiment: Hydrolysis of glyco-caged prodrugs by BoGH5A, copper-bicinchoninic acid (BCA) reducing-sugar assay; type: biochemical; details: sodium citrate buffer, pH 6.5
Excerpt: DOI:10.1007/978-1-4939-6899-2 1.

[2] = tested on: IL-1β, IL-6, IL-22, TNF-α; experiment: Tissue cytokine detection by ELISA in cecal and colonic homogenates (Example 3); type: in vivo, mice; details: for decreasing pro-inflammatory cytokines (IL-1β and TNF-α) and increasing IL-22 in intestinal tissues: compared with uncaged drugs
Description: Cecal and colonic homogenate for each mouse was prepared using the tissues suspended in an immunoprecipitation buffer at a ratio of 1:5 (wt/vol, adapted from Burgos-Ramos E. et al. 2012. “Adipose tissue promotes a serum cytokine profile related to lower insulin sensitivity after chronic central leptin infusion”. PLoS One Vol 7(10): e46893) with the addition of 1% Protease Inhibitor Cocktail (Sigma Aldrich). Frozen tissue sections were immediately homogenized using a Tissue-Tearor® model 398 homogenizer (Biospec Products) and centrifuged (14 000×g for 30 min at 4° C.). Supernatants were collected and used immediately for cytokine profiling. Cecal and colonic cytokine concentrations were measured for each treatment group by enzyme-linked immunosorbent assay (ELISA). Cytokines included in the analysis were interleukin-1 beta (IL-1β); IL-6; IL-10; IL-22; and tumour necrosis factor alpha (TNF-α). All cytokines were quantified using mouse DuoSet ELISA Development kits according to the manufacturer's protocols (R&D Systems). ELISAs were performed using 96-well high-binding half area microplates (Greiner Bio-One), and the optical density of the reactions were determined at wavelength of 450 nm on a Synergy HT™ multi-detection microplate reader (BioTek Instruments Inc.) with Gen5™ analysis software (BioTek Instruments Inc.).

[3] = tested on: acute self-limiting colitis in mice; experiment: Histological scoring of inflammation, C. rodentium colitis in mice with normal enteric microbiota (Example 7); type: in vivo; details: for histological score, distal colon: CR+/BO+ mice, prednisolone forms 1 mg/kg, dexamethasone forms 1.5 mg/kg (equivalent), one day following steroid treatment; for efficacy compared with the uncaged drug, histologically: Example 7 conclusions; for colitis in the colon, histopathologically: colitis incited by Citrobacter rodentium, mice colonized by Bacteroides ovatus
Description: (§1) Approval to conduct this project was obtained from the AAFC LeRDC Animal Care Committee (Animal Use Protocol 1911). […] The methods employed were essentially the same as those described in Example 3, except that the Citrobacter rodentium (CR) was administered to incite acute self-limiting colitis in mice prior to colonization with Bacteroides ovatus (BO). […] FIG. 20 provides a schematic illustrating the study design and timelines.
(§2) As in the study described in Example 3, there were gross histopathological differences in the distal colon tissue obtained from mice in the different treatment groups. Histological scoring of inflammation was performed by a board-certified pathologist blinded to treatment. […] Following CR infection, with no treatment, neutrophil infiltration was evident and the histological score was 10. […] Evidence of enhanced amelioration of protein markers of inflammation were also observed. […] IL-12p70 is a pro-inflammatory cytokine involved in cell-mediated immunity. For example, it is known as a T cell-stimulating factor, which can stimulate the growth and function of T cells. Moreover, it stimulates the production of interferon-gamma (IFN-γ) and tumor necrosis factor-alpha (TNF-α) from T cells and natural killer (NK) cells, and reduces IL-4 mediated suppression of IFN-γ.

[4] = tested on: interleukin-12p70 (IL-12p70); experiment: Protein markers of inflammation in colonic tissue (Example 7); type: in vivo; details: infected female mice; compared to uncaged PRED or DEXA
Description: as §1, §2

[5] = tested on: acute self-limiting colitis in mice; experiment: Gross visual observations of the murine abdomen (Example 3); type: in vivo; details: necropsy after 3 days of steroid gavage
Excerpt: Under isoflurane anesthesia, mice were terminally bled by cardiac puncture and then humanely euthanized by cervical dislocation. All collected blood was separated into serum that was dedicated for steroid detection and optimization of steroid detection procedures. Following euthanasia, a midline laparotomy was made and gross observations of the abdominal regions were photo-documented. Approximately 1 cm sections of the cecum, and the most proximal and distal portions of the colon were divided for histological examination. Cecal and colonic tissues were flash frozen in liquid nitrogen for future immunological protein quantification. Digesta extracted from the colon was stored at −80° C. for future steroid detection, and fresh feces from the cages were used to enumerate Bacteroides ovatus and Citrobacter rodentium by microbiological techniques on the same day as the necropsy.

[6] = tested on: acute self-limiting colitis in mice; experiment: Histological scoring of inflammation, C. rodentium colitis in germ-free mice colonized with B. ovatus (Example 3); type: in vivo; details: for Crypt Height / Epithelia Hyperplasia / Epithelial Injury / Fibrosis / Globlet cell / Inflamm / Mitotic Act.: gavage 3 days, prednisolone forms 1 mg/kg/day, dexamethasone forms 0.6 mg/kg/day; for Crypt Height / Epithelia Hyperplasia / Epithelial Injury / Fibrosis / Globlet cell / Inflamm / Mitotic Act. / Total Score: n=2; for Total Score: sum of each scoring category; for acute inflammation in the proximal and distal colon, histopathologically / efficacy compared with the uncaged drug: gnotobiotic mice colonized by B. ovatus; for efficacy compared with the uncaged drug: Example 3 conclusions
[7] = cecal tissue homogenates, compared to the free steroids, n=2

Bacteroides ovatus GH5 endo-xyloglucanase, sequence (A7LXT7 33-502): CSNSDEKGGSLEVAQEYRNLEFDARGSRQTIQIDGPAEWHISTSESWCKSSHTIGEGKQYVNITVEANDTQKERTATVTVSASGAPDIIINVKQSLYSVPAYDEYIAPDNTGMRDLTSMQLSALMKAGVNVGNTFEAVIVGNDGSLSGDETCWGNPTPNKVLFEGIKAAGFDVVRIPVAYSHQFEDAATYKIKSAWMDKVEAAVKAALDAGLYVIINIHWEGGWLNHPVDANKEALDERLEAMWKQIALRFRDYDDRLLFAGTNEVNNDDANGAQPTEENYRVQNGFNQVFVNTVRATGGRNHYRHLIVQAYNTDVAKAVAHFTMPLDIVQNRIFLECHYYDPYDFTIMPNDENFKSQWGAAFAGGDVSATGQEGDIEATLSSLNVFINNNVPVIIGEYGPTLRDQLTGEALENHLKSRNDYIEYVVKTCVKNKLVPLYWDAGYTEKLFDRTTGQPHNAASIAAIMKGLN

SMILES	hydrolysis of the prodrug (release of the active drug) [1]	histological score, distal colon [3]	Crypt Height ([6]; cecal tissue)	Epithelia Hyperplasia ([6]; cecal tissue)	Epithelial Injury ([6]; cecal tissue)	Fibrosis ([6]; cecal tissue)	Globlet cell ([6]; cecal tissue)	Inflamm ([6]; cecal tissue)	Mitotic Act. ([6]; cecal tissue)	Total Score ([6]; cecal tissue)	Crypt Height ([6]; distal colon)	Epithelia Hyperplasia ([6]; distal colon)	Epithelial Injury ([6]; distal colon)	Fibrosis ([6]; distal colon)	Globlet cell ([6]; distal colon)	Inflamm ([6]; distal colon)	Mitotic Act. ([6]; distal colon)	Total Score ([6]; distal colon)	Crypt Height ([6]; proximal colon)	Epithelia Hyperplasia ([6]; proximal colon)	also measured
COC(=O)c1cc(N)ccc1O[C@@H]1OC(CO)[C@@H](O[C@@H]2OC(CO[C@H]3OC[C@@H](O)C(O)C3O)[C@@H](O[C@@H]3OC(CO[C@H]4OC[C@@H](O)C(O)C4O)[C@@H](O[C@@H]4OC(CO[C@H]5OC[C@@H](O)C(O)C5O)[C@@H](O)C(O)C4O)C(O)C3O)C(O)C2O)C(O)C1O (stereo partly drawn) [XXXG-5ASAME, XXXG-β-O-mesalazineME]	demonstrated	–	–	–	–	–	–	–	–	–	–	–	–	–	–	–	–	–	–	–	–
C[C@@H]1C[C@H]2[C@@H]3CCC4=CC(=O)C=C[C@]4(C)[C@@]3(F)[C@@H](O)C[C@]2(C)[C@@]1(O)C(=O)CO[C@@H]1OC(CO)[C@@H](O[C@@H]2OC(CO[C@H]3OC[C@@H](O)C(O)C3O)[C@@H](O[C@@H]3OC(CO[C@H]4OC[C@@H](O)C(O)C4O)[C@@H](O[C@@H]4OC(CO[C@H]5OC[C@@H](O)C(O)C5O)[C@@H](O)C(O)C4O)C(O)C3O)C(O)C2O)C(O)C1O (stereo partly drawn) [XXXG-DEXA, XXXG-β-O-dexamethasone]	demonstrated	2	1	1	1	1.5	0.5	2	1.5	8.5	1.5	1.5	1	0	0	1	1	6	2	1.5	IL-1β concentration in cecal tissue [2, 7]: decreased; TNF-α concentration in cecal tissue [2, 7]: decreased; decrease of IL-6 concentration in cecal tissue [2, 7]: more effective than XXXG-PRED; decreasing pro-inflammatory cytokines (IL-1β and TNF-α) and increasing IL-22 in intestinal tissues [2]: more effective than the uncaged drugs; efficacy compared with the uncaged drug, histologically [3]: greater efficacy than uncaged dexamethasone histologically; colitis in the colon, histopathologically [3]: ameliorate colitis; quantities of interleukin-12p70 (IL-12p70) protein in colonic tissue [4]: significantly lower; cecal and colonic thickening (gross observation) [5]: less cecal and colonic thickening than uncaged dexamethasone; amelioration of colitis in the cecum and proximal colon, caged drugs compared ([6]; colitis incited by Citrobacter rodentium): more effective than XXXG-PRED; caged drugs compared in the distal colon ([6]; distal colon): equal scores; acute inflammation in the proximal and distal colon, histopathologically [6]: ameliorate acute inflammation; efficacy compared with the uncaged drug [6]: greater efficacy than uncaged dexamethasone; injury and inflammation intensities, distal colon ([6]; histologic examination): lessened the injury and inflammation intensities; injury and inflammation intensity, ceca and proximal colon tissues ([6]; histologic examination): less injury and inflammation intensity than the other treatments; Epithelial Injury ([6]; proximal colon): 2; Fibrosis ([6]; proximal colon): 0; Globlet cell ([6]; proximal colon): 0; Inflamm ([6]; proximal colon): 1; Mitotic Act. ([6]; proximal colon): 1.5; Total Score ([6]; proximal colon): 8
C[C@]12C=CC(=O)C=C1CC[C@@H]1[C@@H]2[C@@H](O)C[C@@]2(C)[C@H]1CC[C@]2(O)C(=O)CO[C@@H]1OC(CO)[C@@H](O[C@@H]2OC(CO[C@H]3OC[C@@H](O)C(O)C3O)[C@@H](O[C@@H]3OC(CO[C@H]4OC[C@@H](O)C(O)C4O)[C@@H](O[C@@H]4OC(CO[C@H]5OC[C@@H](O)C(O)C5O)[C@@H](O)C(O)C4O)C(O)C3O)C(O)C2O)C(O)C1O (stereo partly drawn) [XXXG-PRED, XXXG-β-O-prednisolone]	demonstrated	4	2	2	1.5	0.5	0	2.5	1.5	10	1.5	1.5	1	0	0.5	1	1	6.5	2	3	IL-1β concentration in cecal tissue [2, 7]: decreased; TNF-α concentration in cecal tissue [2, 7]: decreased; IL-22 concentration in cecal tissue ([2]; cecal tissue homogenates, n=2): increased; decreasing pro-inflammatory cytokines (IL-1β and TNF-α) and increasing IL-22 in intestinal tissues [2]: more effective than the uncaged drugs; efficacy compared with the uncaged drug, histologically [3]: greater efficacy than uncaged prednisolone histologically; colitis in the colon, histopathologically [3]: ameliorate colitis; quantities of interleukin-12p70 (IL-12p70) protein in colonic tissue [4]: significantly lower; blood present in ceca (gross observation) [5]: more blood present in ceca than dexamethasone treatment; also recorded: more blood in cecal area; caged drugs compared in the distal colon ([6]; distal colon): equal scores; acute inflammation in the proximal and distal colon, histopathologically [6]: ameliorate acute inflammation; efficacy compared with the uncaged drug [6]: greater efficacy than uncaged prednisolone; injury and inflammation intensities, distal colon ([6]; histologic examination): lessened the injury and inflammation intensities; Epithelial Injury ([6]; proximal colon): 2.5; Fibrosis ([6]; proximal colon): 0; Globlet cell ([6]; proximal colon): 0.5; Inflamm ([6]; proximal colon): 2; Mitotic Act. ([6]; proximal colon): 1.5; Total Score ([6]; proximal colon): 11.5
C[C@@H]1C[C@H]2[C@@H]3CCC4=CC(=O)C=C[C@]4(C)[C@@]3(F)[C@@H](O)C[C@]2(C)[C@@]1(O)C(=O)CO [dexamethasone, reference compound]	–	17	1	1	0.5	0	0	2	1.5	6	2	1.5	1	1	1.5	1.5	1	9.5	3	3	Epithelial Injury ([6]; proximal colon): 2; Fibrosis ([6]; proximal colon): 0; Globlet cell ([6]; proximal colon): 0; Inflamm ([6]; proximal colon): 1.5; Mitotic Act. ([6]; proximal colon): 1.5; Total Score ([6]; proximal colon): 11
